Laboratory results from patent publication US20140274978A1, “Phytosterol spirostane and spirostene derivatives having a wide variety of utilities in humans and other animals” (priority 2013, published 2014).
Like-named read-outs stand apart in the source and are kept apart here.

Tests used:
[1] = 3 grams/day for 30 days, humans; cited from earlier work
[2] = rat, in vivo, 25 mg/kg; cited from earlier work
[3] = Life span of a Great Dane on daily administration; assay type: in vivo, dogs; conditions: 8 mg/day from age 8, upper limit for lineage 10 years
Experimental: The compounds of invention are also useful for lengthening the life span of various large breeds of dogs (and presumably small breeds). One Great Dane. given 25R-Spirostan-3B, 5α-diol-6-one daily (8 mg/day) from age 8 on. lived to be almost 13 years old. The dog had to be euthanized because it suffered from dysplasia in both hips; otherwise it was healthy and active. The upper limit of age for Great Danes of this lineage was previously considered to be 10 years.
A Great Dane that was given 25R-Spirostan-3B, 5α-diol-6-one daily (8 mg/day) from age 8 on lived to be almost 13 years old. The dog had to be euthanized because it suffered from dysplasia in both hips; otherwise it was healthy and active. The upper limit of age for Great Danes of this particular lineage was previously considered to be 10 years.

[4] = cited from earlier work
[5] = Topical lotion on severely atrophic skin of an elderly person; assay type: in vivo, humans; conditions: atrophic skin of hands; for skin elasticity and strength: after one month; for traumatic purpurra and venous lakes: two months
From the text: Phytosterol derivative compounds of the present invention are also useful as skin agents for animals and useful as cosmetic agents when formulated in preparations which, when applied to the skin, create a penetrating flux that will deliver the compound to both the epidermis and dermis. The preferred lotion formulations are of low irritancy and are generally comprised of either a spirostane or a spirostene or, preferably for synergistic reasons, a combination of both [0.05-0.2% (w/w) combined in a ratio of 2:1 to 1:2] dissolved in a solution consisting of propylene glycol [50-70% (w/w)]. propylene carbonate [15-25% (w/w)], water [10-20% (w/w)], and glycerol [0.12.0% (w/w)]. The steroid solutions are most preferably formulated at 80-90% saturation.
The compounds of invention, when formulated as above, are useful for reversing many aspects of degenerative skin disorders (such as thin, fragile, inelastic skin and weakened dermal blood vessels) due to various causes such as aging or chronic corticosteroid therapy.

[6] = Oral administration to older dogs (vigor, health); assay type: in vivo; conditions: for activity, stamina, appetite, stiffness, overall health reported by pet owners / lean muscle mass and body fat: dogs of 7-14 years of age; for activity, stamina, appetite, stiffness, overall health reported by pet owners: 1-10 mg/day in two divided doses; for lean muscle mass and body fat: over 2-3 months administration; for behavior of ailing dogs / age lived to: two Rhodesian Ridgeback dogs; for behavior of ailing dogs: age 13, failure to thrive; for age lived to: daily dosages from age 13
From the text: Their appetite and activity increased, they became leaner—leaner muscle, wanted to go for walks and became like a new dog. They lived another 3 years on a daily dosages to age 16. Their treating Veterinarian said he had never seen dogs of their size and breed live to such an advanced age. Numerous similar reports were collected.
See Kokl. Akad. Nauk. Uzb., SSR, 1981, v.3, pp. 31-33. See also Farmakol. Toksikol., 1976, 39(5), pp. 631-35.

[7] = Oral administration to aging human volunteers (energy, stamina, sleep); assay type: in vivo, humans
Experimental: The spirostanic compounds of the invention are also useful in increasing and restoring health and vigor, useful in preventing fatigue, and useful in improving physical condition and performance and increasing work output in aging humans and other mammals. For example, 15 mg of 25R-Spirostan-3B, 5α-diol-6-one was given to a person in three divided doses per day (t.i.d.) for two weeks.
15 mg of 25R-Spirostan-3B, 5α-diol-6-one was given to a person in three divided doses per day (t.i.d.) for two weeks.

[8] = Physical stamina and endurance of hunting dogs; assay type: in vivo; conditions: 5-10 mg/day
From the text: The compounds of invention are also useful for increasing physical stamina and endurance in young working and sporting dogs used for hunting, sled pulling and herding and dogs in competitions such as greyhound racing, field trials, agility, disc dog, dock jumping and Schutzhund.

estrogen receptors = experiment: Competitive binding inhibition studies (Baylor University), estrogen receptors; conditions: even at the limits of compound solubility
From the text: (§1) Consequently, the spirostane and spirostene compounds of the present invention are expected to be devoid of hormonal activity.

androgen receptors = target: T1, androgen receptors (Homo sapiens, UniProt P10275); experiment: Competitive binding inhibition studies (Baylor University), androgen receptors; conditions: even at the limits of compound solubility
T1 sequence (P10275 1-920): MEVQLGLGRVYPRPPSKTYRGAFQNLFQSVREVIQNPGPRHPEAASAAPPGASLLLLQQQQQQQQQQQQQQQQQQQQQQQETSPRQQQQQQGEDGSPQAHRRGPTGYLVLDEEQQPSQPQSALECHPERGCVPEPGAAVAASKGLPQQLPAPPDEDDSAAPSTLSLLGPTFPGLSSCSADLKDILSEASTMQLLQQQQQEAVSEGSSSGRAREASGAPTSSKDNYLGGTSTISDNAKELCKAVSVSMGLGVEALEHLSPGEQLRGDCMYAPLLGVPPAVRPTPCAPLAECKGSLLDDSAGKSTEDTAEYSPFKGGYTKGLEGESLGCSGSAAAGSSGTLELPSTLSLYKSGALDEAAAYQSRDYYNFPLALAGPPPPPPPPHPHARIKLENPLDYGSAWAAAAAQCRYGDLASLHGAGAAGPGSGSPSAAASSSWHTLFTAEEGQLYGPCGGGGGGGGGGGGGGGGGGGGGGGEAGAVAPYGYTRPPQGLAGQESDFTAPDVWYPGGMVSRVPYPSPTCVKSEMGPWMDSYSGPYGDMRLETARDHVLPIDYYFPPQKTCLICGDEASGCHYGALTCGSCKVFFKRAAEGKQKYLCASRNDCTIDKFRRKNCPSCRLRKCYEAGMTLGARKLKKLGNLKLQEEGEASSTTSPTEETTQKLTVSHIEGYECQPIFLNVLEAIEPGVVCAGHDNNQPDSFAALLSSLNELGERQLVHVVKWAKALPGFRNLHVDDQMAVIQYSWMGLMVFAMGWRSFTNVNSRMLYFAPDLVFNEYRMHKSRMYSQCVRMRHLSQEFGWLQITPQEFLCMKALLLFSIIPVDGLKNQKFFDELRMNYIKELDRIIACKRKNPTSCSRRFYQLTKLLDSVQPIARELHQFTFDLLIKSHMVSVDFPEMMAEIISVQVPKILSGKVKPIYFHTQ
From the text: as §1

protein synthesis = conditions: cited from earlier work; for sensitivity of protein stimulation to actinomycin D: Russian report, Biol. Nauki 1984
[9] = Synergy of 7-keto-diosgenin with laxogenin and/or 5-hydroxy laxogenin (inventor's finding); conditions: 1:1 ratio found effective
[10] = Laxogenin in a person with double knee replacement (pain, recovery); assay type: in vivo, humans
Experimental: The compounds of the present invention also have the ability to mediate and/or reduce pain in humans and other animals. A person received a double knee replacement due to long time injuries. They began taking 3 doses per day of Laxogenin at 150 mg per dose one week prior to knee surgery.

[11] = labeled ecdysterone 50 mg/kg, mice; cited from earlier work
[12] = Oral 5-androsten-3β,17β-diol-7-one diacetate with weight resistance training; assay type: in vivo, humans
Experimental: Human volunteers familiar with conventional anabolic steroids used 60 mg/day (20 mg tid) 5-androsten-3β,17β-diol-7-one diacetate orally, in conjunction with weight resistance training.

[13] = 15 mg in three divided doses per day, two weeks, person

SMILES: C[C@@H]1CC[C@@]2(OC1)O[C@H]1C[C@H]3[C@@H]4CC=C5C[C@@H](O)CC[C@]5(C)[C@H]4CC[C@]3(C)[C@H]1[C@@H]2C [diosgenin]
- metabolism in the B-ring [1]: not metabolized in the B-ring
- serum half-life [2]: approximately 14 hours

SMILES: C[C@@H]1CC[C@@]2(OC1)O[C@H]1C[C@H]3[C@@H]4CC(=O)[C@@]5(O)C[C@@H](O)CC[C@]5(C)[C@H]4CC[C@]3(C)[C@H]1[C@@H]2C [25R-Spirostan-3B, 5α-diol-6-one, (25R)-spirostan-3β-5α-diol-6-one]
- age lived to [3]: ~13 years
- anabolic activity in older (mature) rats ([4]; older (i.e. mature) rats): reduced anabolic activity
- anabolic activity in young rats ([4]; young rats): higher anabolic activity
- skin elasticity and strength [5]: dramatic increases in skin elasticity and strength
- traumatic purpurra and venous lakes [5]: Virtually all traumatic purpurra and venous lakes were resolved within two months
- activity, stamina, appetite, stiffness, overall health reported by pet owners [6]: increased activity, playfulness, physical stamina, appetite and interaction with owners, reduced stiffness and weakness, and improved overall health
- lean muscle mass and body fat [6]: increased many of the dogs' lean muscle mass while reducing body fat
- length of time able to work in garden [7, 13]: 2-3 times
- well-being, energy and physical stamina [7, 13]: overall increase in well-being, accompanied by a definite increase in energy and physical stamina
- total sleep time ([7]; 60 mg/day, over one month, increased from 6 hrs/night): approximately 8 hrs/night
- physical energy and stamina ([7]; 60 mg/day, person and person): definite increases in physical energy and stamina within one week
- physical stamina and endurance [8]: noticeable improvement in their dogs physical stamina and endurance within one week
- binding to estrogen receptors (estrogen receptors): did not bind
- binding to androgen receptors (androgen receptors): did not bind

SMILES: CC(C)(O)CC[C@@H](O)[C@](C)(O)[C@H]1CC[C@@]2(O)C3=CC(=O)[C@@H]4C[C@@H](O)[C@@H](O)C[C@]4(C)[C@H]3[C@H](O)C[C@]12C [turkesterone]
- sensitivity of protein stimulation to actinomycin D (protein synthesis): completely insensitive to actinomycin D

SMILES: C[C@@H]1CC[C@@]2(OC1)O[C@H]1C[C@H]3[C@@H]4C(=O)C=C5C[C@@H](O)CC[C@]5(C)[C@H]4CC[C@]3(C)[C@H]1[C@@H]2C [7-keto-diosgenin, 5,25R-spirosten-3β-ol-7-one]
- synergy with laxogenin and/or 5-hydroxy laxogenin [9]: unexpectedly synergistic
- skin elasticity and strength [5]: dramatic increases in skin elasticity and strength
- traumatic purpurra and venous lakes [5]: Virtually all traumatic purpurra and venous lakes were resolved within two months
- activity, stamina, appetite, stiffness, overall health reported by pet owners [6]: increased activity, playfulness, physical stamina, appetite and interaction with owners, reduced stiffness and weakness, and improved overall health
- lean muscle mass and body fat [6]: increased many of the dogs' lean muscle mass while reducing body fat
- behavior of ailing dogs [6]: started to exhibit puppy like behavior after 48 hours
- age lived to [6]: 16
- physical stamina and endurance [8]: noticeable improvement in their dogs physical stamina and endurance within one week

SMILES: C[C@@H]1CC[C@@]2(OC1)O[C@H]1C[C@H]3[C@@H]4CC(=O)[C@H]5C[C@@H](O)CC[C@]5(C)[C@H]4CC[C@]3(C)[C@H]1[C@@H]2C [Laxogenin, (25R)-3β-hydroxy-5α-spirostan-6-one]
- behavior of ailing dogs [6]: started to exhibit puppy like behavior after 48 hours
- age lived to [6]: 16
- pain before surgery ([10]; 3 doses per day at 150 mg per dose, started one week prior to knee surgery): pain had diminished their third day
- standing and walking ([10]; 7th day after surgery): could stand and walk far distances free of pain, stiffness and discomfort
- need for morphine drip ([10]; day after operation): able to discontinue their morphine drip altogether
- surface inflammation and scarring ([10]; liquid version applied topically): reduced surface inflammation and scarring greatly

SMILES: CC(C)(O)CC[C@@H](O)[C@](C)(O)[C@H]1CC[C@@]2(O)C3=CC(=O)[C@@H]4C[C@@H](O)[C@@H](O)C[C@]4(C)[C@H]3CC[C@]12C [ecdysterone, 20-Hydroxyecdysone]
- repression of induced protein synthesis by actinomycin D (protein synthesis; Japanese report, Chem. Pharm. Bull. 1969): partially repressed
- sensitivity of protein stimulation to actinomycin D (protein synthesis): completely insensitive to actinomycin D
- serum half-life [11]: 8.15 min

SMILES: CC(=O)O[C@H]1CC[C@@]2(C)C(=CC(=O)[C@H]3[C@@H]4CC[C@H](OC(C)=O)[C@@]4(C)CC[C@@H]32)C1 [5-androsten-3β,17β-diol-7-one diacetate]
- androgenic side-effects ([12]; 60 mg/day (20 mg tid) orally): No subject reported any noticeable androgenic side-effects
- strength, endurance and muscle mass accretion ([12]; 60 mg/day (20 mg tid) orally with weight resistance training): increases in strength and endurance as well as accelerated increases in muscle mass accretion
